Results reported in article PMC6264460, “Lead Generation and Optimization Based on Protein-Ligand Complementarity” (Molecules, 2010).

Target: T1, JNK3 (Homo sapiens, UniProt P53779)
T1 construct: made in house
Assay: Inhibition of ATP hydrolysis by JNK3 (coupled NADH oxidation assay)
Assay type: biochemical
Conditions: ATP hydrolysis by JNK3, 100 nM JNK3, pH 7.6, 1% DMSO
Description: To measure the inhibitory activity of the Z1208, we used the following assay system: adenosine triphosphate (ATP), phosphoenolpyruvate (PEP), nicotinamide adenine dinucleotide (NADH), and a solution mixture of pyruvate kinase and L-lactate dehydrogenase (PK-L-LDH) were purchased from Roche Diagnostics. Other reagents were purchased from Sigma-Aldrich. JNK3 was expressed and purified by the method of Xie et al.. After a purification step, JNK3 was activated by GST-fused MKK7 and further purified against a glutathione-fixed column. […] The conversion of NADH was measured by kinetic monitoring with SpectraMax 190 (Molecular Devices).

T1 sequence (P53779 40-402 limits assumed): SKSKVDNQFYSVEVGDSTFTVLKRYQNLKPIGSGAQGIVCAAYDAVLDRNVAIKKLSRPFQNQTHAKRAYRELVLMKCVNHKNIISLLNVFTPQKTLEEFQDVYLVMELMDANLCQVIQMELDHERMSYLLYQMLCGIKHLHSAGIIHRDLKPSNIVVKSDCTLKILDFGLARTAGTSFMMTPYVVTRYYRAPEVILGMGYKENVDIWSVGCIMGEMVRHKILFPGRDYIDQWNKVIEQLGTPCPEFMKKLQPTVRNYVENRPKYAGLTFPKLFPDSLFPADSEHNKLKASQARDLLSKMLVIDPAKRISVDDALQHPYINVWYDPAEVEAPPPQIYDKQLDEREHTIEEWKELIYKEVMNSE

IC50: 62.9 µM
SMILES: CN1c2c[nH]nc2C(O)=C(C(=O)Nc2ccc(Cl)c(Cl)c2)S1(=O)=O [Z1208-8]
